From patent US20190248834A1, “ENDOMORPHIN-2, TETRAPEPTIDE DERIVATIVES THEREOF, AND USES THEREOF” (priority 2016, published 2019) come the findings set out here.

Format in all cases: in vivo, human
Assay [1] deals with periostitis of right upper tibia, osteoarthritis of left knee, left hip joint pain, lower back pain. The assay is described as follows: Example 87: pain relief at multiple sites in one subject, topical. The following applies: for degree of analgesic effect / duration of pain relief / pain relief at the treated sites / time to pain relief: 0.8% (w/v) in WEP442, topical to the sites of pain; for duration of pain relief, right upper tibia: 0.8% (w/v) in WEP442, periostitis of right upper tibia. An excerpt:
A caregiver subject, presented with (a) painful periostitis of the right upper tibia for about 3 months, (b) painful early osteoarthritis of the left knee for about 1 year, (c) painful left hip joint of about 6 months, and (d) lower back pain near the end of the work day for about 2 years.
Over the course of 16 days, this subject evaluated the analgesic efficacy of eight (8) endomorphin-2 tetrapeptide derivatives in WEP442 at a concentration of 0.8% (w/v) applied topically to the sites of pain.
The lower back pain returned toward the end of the following work day.
Relief of lower back pain lasted for 20-24 hours (4+ effect). […]
For the above same subject, the composition containing 0.8% (w/v) of N-Ac-Tyr-Pro-Phe-Phe-NHCH(CH3)2 (SEQ ID NO: 27) in WEP442 was topically applied to the right upper tibia, left knee and left hip.
For the above same subject, the composition containing 0.8% (w/v) of N-Fo-Tyr-Pro-Phe-Phe-NH2 (SEQ ID NO: 104) in WEP442 was topically applied to 3 sites. Relief of pain was variable. […] Relief of pain in the right upper tibia was complete in about 4 minutes, lasting for 12 hours.
For the above same subject, the composition containing 0.8% (w/v) of N-Bz-Tyr-Pro-Phe-Phe-NH2 (SEQ ID NO: 84) in WEP442 provided relief of pain within 2-4 minutes. On the left hip, the relief was complete, lasting for about 12 hours (4+ effect). On the left knee, relief was incomplete, about 50%, lasting for only about 3 hours (2+ effect). On the right upper tibia, relief was complete and lasted for about 12 hours (4+ effect).

For assay [2], the system named is severe osteoarthritis of both knees. The assay is described as follows: Example 88: analgesic efficacy of eight derivatives on severe osteoarthritis, topical. The method, then: A subject with severe osteoarthritis of both knees for a duration of about 7 years evaluated numerous tetrapeptide derivatives over the past years. […] Over the course of 3 weeks, this subject evaluated the analgesic efficacy of eight (8) endomorphin-2 tetrapeptide derivatives in WEP442 at a concentration of 1% (w/v) applied topically to the knees.
Reapplication at the end of that time again provided the same effect. Application at bedtime provided relief of pain for 7 hours. The same results were achieved the next day (3+ to 4+ effect).
A second application, about 15 minutes later, provided somewhat more relief (2+ effect).
Application at 9:30 p.m. provided relief until 5:30 a.m., and similar results were achieved the next day (3+ to 4+ effect).
No modification of pain in the right knee, which had received application of vehicle WEP442 as a control, was detected. Application of the composition containing the tetrapeptide derivative to the right knee about 15 minutes later provided prompt relief of pain. Pain relief in both knees lasted for about 5 hours (3+ to 4+ effect).
Relief lasted for about 3 hours. Re-application at that time provided the same degree of pain relief in about 5 minutes, which lasted about another 3 hours (2+ effect).
For the above same subject, the composition containing 1% (w/v) of N-Fo-Tyr-Pro-Phe-Phe-NH2 (SEQ ID NO: 104) in WEP442 was applied to the left knee, and the composition containing 1% (w/v) of N-Bz-Tyr-Pro-Phe-Phe-NH2 (SEQ ID NO: 84) in WEP442 was applied to the right knee moments later. Relief of pain in both knees seemed equivalent, was detectable in 5-7 minutes and lasted for about 4 hours. This procedure was repeated the next day with about the same results. The degree of pain relief from both solutions was rated as 3+ effect.

Assay [3] concerns psoriatic arthritis of interphalangeal joints of the fingers. The assay is described as follows: Example 93: multiple derivatives evaluated for relief of pain associated with psoriatic arthritis, topical. As to conditions: 0.8% (w/v) in WEP442, topical to both hands. From the text:
A subject with extensive plaque psoriasis and psoriatic arthritis of interphalangeal joints of the fingers evaluated multiple tetrapeptide derivatives for comparative effectiveness on relief of their painful fingers. Over the course of 4 weeks, this subject evaluated the analgesic efficacy of ten (10) endomorphin-2 tetrapeptide derivatives in WEP442 at a concentration of 0.8% (w/v) applied topically to both hands, which included all fingers.

Setting [4] is: 1% (w/v) in WEP442, topical to the knees.
The mark [5] stands for this setting: 0.8% (w/v) in WEP442, lower lumbar.
Where [6] appears, read: 0.8% (w/v) in WEP442, right upper tibia.

Primed or numbered codes have the meaning given here. *: point of attachment. NHPhenethyl = c1ccc(CCN*)cc1; Bz′ = not defined here; NHBn = c1ccc(CN*)cc1; Propionyl = CCC(=O)*; NHNHAc = CC(=O)NN*; NHiPr = CC(C)N*; NHNH2 = NN*; NHOH = ON*

Regarding “N-Ac-Tyr-Pro-Phe-Phe-NHCH2C6H5 (Ac-YPFF-NHBn; SMILES CC(=O)N[C@@H](Cc1ccc(O)cc1)C(=O)N1CCC[C@H]1C(=O)N[C@@H](Cc1ccccc1)C(=O)N[C@@H](Cc1ccccc1)C(=O)NCc1ccccc1)”, in assay [1], the “degree of analgesic effect” value is 4+, the “duration of pain relief” value is at least 5 h, the “pain relief at the treated sites” value is on record as “complete relief of pain” and the “time to pain relief” value was 3 to 4 min. The analgesic effect grade in assay [2] (1% (w/v) in WEP442, second application about 15 minutes later) was 2+ (2+ (50%): substantial but incomplete relief of pain for less than 4 hours). Also, in assay [2] (setting [4]), the analgesic effect grade is listed as 1+ (1+ (25%): partial relief of pain for less than 4 hours) and the pain relief entry is “little relief of pain”. Also, in assay [3], the “duration of pain relief” value is “about 6 hours”, the pain relief entry is on record as “substantial relief of pain” and the “time to pain relief” value is 3 to 5 min.

As to “N-Ac-Tyr-Pro-Phe-Phe-NHCH2CH2C6H5 (Ac-YPFF-NHPhenethyl; SMILES CC(=O)N[C@@H](Cc1ccc(O)cc1)C(=O)N1CCC[C@H]1C(=O)N[C@@H](Cc1ccccc1)C(=O)N[C@@H](Cc1ccccc1)C(=O)NCCc1ccccc1)”, in assay [1], the “degree of analgesic effect” value was 0 (zero represented no relief) and the “pain relief at the treated sites” value is listed as “no detectable analgesic effect”. Further, in assay [2] (setting [4]), the analgesic effect grade is 0 and the pain relief entry is given as “no detectable analgesic effect”. Also, in assay [3], the “degree of analgesic effectiveness” value is given as 0 (zero represented no relief) and the pain relief entry is “no detectable analgesic effect”.

Regarding “N-Ac-Tyr-Pro-Phe-Phe-NHCH2CH3 (Ac-YPFF-NHEt; SMILES CCNC(=O)[C@H](Cc1ccccc1)NC(=O)[C@H](Cc1ccccc1)NC(=O)[C@@H]1CCCN1C(=O)[C@H](Cc1ccc(O)cc1)NC(C)=O)”, in assay [1], the “degree of analgesic effect” value is 4+, the “duration of pain relief” value is at least 5 h, the “pain relief at the treated sites” value is listed as “complete relief of pain” and the “time to pain relief” value lay in the range of 3 to 4 min. In addition, the “duration of pain relief” value in assay [2] (1% (w/v) in WEP442, application at bedtime) was 7 h. Besides, in assay [2] (setting [4]), the “duration of pain relief” value fell in the range of 3 to 4 h, the pain relief result was “very good relief of pain” and the “time to pain relief” value lay within 3 to 5 min. For the same substance, in assay [3], the “degree of analgesic effectiveness” value is reported as 4+, the “duration of pain relief” value is “about 7 hours”, the pain relief result was “complete relief of pain” and the “time to pain relief” value was 1 to 2 min.

As to “N-Ac-Tyr-Pro-Phe-Phe-NHCH(CH3)2 (Ac-YPFF-NHiPr; SMILES CC(=O)N[C@@H](Cc1ccc(O)cc1)C(=O)N1CCC[C@H]1C(=O)N[C@@H](Cc1ccccc1)C(=O)N[C@@H](Cc1ccccc1)C(=O)NC(C)C)”, in assay [1], the “duration of pain relief, right upper tibia” value was determined as 7 h; the “degree of analgesic effect” value is reported as 4+; the “duration of pain relief” value was “at least 4 hours”; the “pain relief at the treated sites” value is on record as “Complete relief of pain”. The “time to pain relief” value in assay [1] lay within 3 to 4 min. In assay [2] (setting [4]), the analgesic effect grade is on record as 2+ (2+ (50%): substantial but incomplete relief of pain for less than 4 hours), the “duration of pain relief” value is “about 3 hours”, the pain relief entry is “moderate relief of pain” and the “time to pain relief” value was at most 15 min. In assay [3], the “duration of pain relief” value fell in the range of 2 to 3 h, the pain relief result is “only minimal relief of pain” and the “time to pain relief” value fell in the range of 5 to 6 min.

Consider “N-Ac-Tyr-Pro-Phe-Phe-NHNHAc (Ac-YPFF-NHNHAc; SMILES CC(=O)NNC(=O)[C@H](Cc1ccccc1)NC(=O)[C@H](Cc1ccccc1)NC(=O)[C@@H]1CCCN1C(=O)[C@H](Cc1ccc(O)cc1)NC(C)=O)”, for which, in assay [1], the “degree of analgesic effect” value was 4+, the “duration of pain relief” value lay within 8 to 24 h, the “pain relief at the treated sites” value is recorded as “complete relief of pain” and the “time to pain relief” value lay in the range of 1 to 2 min. Further, in assay [2] (setting [4]), the “duration of pain relief” value is on record as “about 5 hours”, the pain relief entry is listed as “substantial relief of pain” and the “time to pain relief” value is 2 to 3 min. Moreover, in assay [3], the “degree of analgesic effectiveness” value was 4+, the “duration of pain relief” value is “about 7 hours”, the pain relief entry is “complete relief of pain” and the “time to pain relief” value was at most 2 min.

As to “N-Ac-Tyr-Pro-Phe-Phe-NHOH (Ac-YPFF-{NHOH}; SMILES CC(=O)N[C@@H](Cc1ccc(O)cc1)C(=O)N1CCC[C@H]1C(=O)N[C@@H](Cc1ccccc1)C(=O)N[C@@H](Cc1ccccc1)C(=O)NO)”, the “duration of relief of lower back pain” value in assay [1] (0.8% (w/v) in WEP442, lower back) lay in the range of 20 to 24 h. Further, in assay [1], the “degree of analgesic effect” value is 4+, the “duration of pain relief” value was at least 12 h, the “pain relief at the treated sites” value was “complete relief of pain” and the “time to pain relief” value was at most 1 min. In addition, in assay [2] (setting [4]), the “duration of pain relief” value is reported as “about 5 hours”, the pain relief result is recorded as “very good relief of pain” and the “time to pain relief” value lay within 3 to 4 min. For the same substance, in assay [3], the “duration of pain relief” value is listed as “about 2 hours”, the pain relief result is listed as “complete relief of pain” and the “time to pain relief” value lay within 1 to 2 min.

“N-Bz-Tyr-Pro-Phe-Phe-NH2 ({Bz′}-YPFF-NH2)”: in assay [1] (0.8% (w/v) in WEP442, left hip), the “degree of analgesic effect, left hip” value was 4+; the “duration of pain relief, left hip” value is reported as “about 12 hours”; the “pain relief, left hip” value was “complete”. Also, the “duration of pain relief, left knee” value in assay [1] (0.8% (w/v) in WEP442, left knee) is recorded as “about 3 hours”. For the same substance, in assay [1] (setting [5]), the “degree of analgesic effect, lower lumbar pain” value was 4+; the “duration of pain relief, lower lumbar pain” value is recorded as “about 4 hours”; the “pain relief, lower lumbar pain” value is reported as “responded completely”. Also, in assay [1], the “duration of pain relief, right upper tibia” value is on record as “about 12 hours” and the “time to pain relief” value was 2 to 4 min. In addition, in assay [1] (setting [6]), the “degree of analgesic effect, right upper tibia” value is listed as 4+ and the “pain relief, right upper tibia” value was “complete”. In assay [2] (setting [4]), the “duration of pain relief” value is “about 4 hours”. In assay [3], the “duration of pain relief” value is given as “about 10 hours”; the pain relief entry is “incomplete, but substantial relief of pain”; the “time to pain relief” value lay in the range of 4 to 5 min.

With “N-Pa-Tyr-Pro-Phe-Phe-NHNH2 (Propionyl-YPFF-NHNH2; SMILES CCC(=O)N[C@@H](Cc1ccc(O)cc1)C(=O)N1CCC[C@H]1C(=O)N[C@@H](Cc1ccccc1)C(=O)N[C@@H](Cc1ccccc1)C(=O)NN)”, in assay [3], the “degree of analgesic effectiveness” value is reported as 4+, the “duration of pain relief” value is reported as “about 7 hours”, the pain relief result is listed as “complete relief of pain” and the “time to pain relief” value fell in the range of 2 to 3 min.

As to “N-Pa-Tyr-Pro-Phe-Phe-NHOH (Propionyl-YPFF-{NHOH}; SMILES CCC(=O)N[C@@H](Cc1ccc(O)cc1)C(=O)N1CCC[C@H]1C(=O)N[C@@H](Cc1ccccc1)C(=O)N[C@@H](Cc1ccccc1)C(=O)NO)”, in assay [3], the “degree of analgesic effectiveness” value was 4+, the “duration of pain relief” value is “about 7 hours”, the pain relief entry is “complete relief of pain” and the “time to pain relief” value was 2 to 3 min.
